# Experiments:
# Format in all cases: binding
# Design in all cases: KINOMEscan: ABL1(F317L)-phosphorylated / KINOMEscan: ABL1(H396P)-nonphosphorylated / KINOMEscan: ABL1(H396P)-phosphorylated / KINOMEscan: ABL1(M351T)-phosphorylated / KINOMEscan: ABL1(T315I)-phosphorylated / KINOMEscan: ABL1-nonphosphorylated / KINOMEscan: ABL1-phosphorylated / KINOMEscan: ACVR2A / KINOMEscan: ACVR2B / KINOMEscan: ADCK3 / KINOMEscan: ADCK4 / KINOMEscan: AKT1 / KINOMEscan: AKT3 / KINOMEscan: ALK / KINOMEscan: ARK5 / KINOMEscan: AURKA / KINOMEscan: AURKC / KINOMEscan: BIKE / KINOMEscan: BMPR1A / KINOMEscan: BMPR1B / KINOMEscan: BMX / KINOMEscan: BRK / KINOMEscan: BRSK1 / KINOMEscan: BRSK2 / KINOMEscan: CAMK1 / KINOMEscan: CAMK1D / KINOMEscan: CAMK1G / KINOMEscan: CAMK2A / KINOMEscan: CAMK2B / KINOMEscan: AAK1 / KINOMEscan: CAMK2D / KINOMEscan: CAMK2G / KINOMEscan: ABL1(F317I)-nonphosphorylated / KINOMEscan: ABL1(F317I)-phosphorylated / KINOMEscan: ABL1(F317L)-nonphosphorylated: unit: % Ctrl
# Conditions in all cases: Compound Concentration 10 µM
# panel of 442 kinases [1] = target: T1, panel of 442 kinases (Homo sapiens, UniProt Q05655)
# T1 construct: purchased KINOMEscan
# Excerpt: (§1) We assessed the selectivity of members of this scaffold using the KINOMEscan methodology across a near comprehensive panel of 442 kinases [[18,27]].
# panel of 442 kinases [2] = target: T2, panel of 442 kinases (Homo sapiens, UniProt Q08345)
# T2 construct: purchased KINOMEscan
# Excerpt: as §1
# panel of 442 kinases [3] = target: T3, panel of 442 kinases (Homo sapiens, UniProt Q9UQM7)
# T3 construct: purchased KINOMEscan
# Excerpt: as §1
# panel of 442 kinases [4] = target: T4, panel of 442 kinases (Plasmodium falciparum, UniProt P62344)
# T4 construct: purchased KINOMEscan
# Excerpt: as §1
# T1 sequence (Q05655 whole entry): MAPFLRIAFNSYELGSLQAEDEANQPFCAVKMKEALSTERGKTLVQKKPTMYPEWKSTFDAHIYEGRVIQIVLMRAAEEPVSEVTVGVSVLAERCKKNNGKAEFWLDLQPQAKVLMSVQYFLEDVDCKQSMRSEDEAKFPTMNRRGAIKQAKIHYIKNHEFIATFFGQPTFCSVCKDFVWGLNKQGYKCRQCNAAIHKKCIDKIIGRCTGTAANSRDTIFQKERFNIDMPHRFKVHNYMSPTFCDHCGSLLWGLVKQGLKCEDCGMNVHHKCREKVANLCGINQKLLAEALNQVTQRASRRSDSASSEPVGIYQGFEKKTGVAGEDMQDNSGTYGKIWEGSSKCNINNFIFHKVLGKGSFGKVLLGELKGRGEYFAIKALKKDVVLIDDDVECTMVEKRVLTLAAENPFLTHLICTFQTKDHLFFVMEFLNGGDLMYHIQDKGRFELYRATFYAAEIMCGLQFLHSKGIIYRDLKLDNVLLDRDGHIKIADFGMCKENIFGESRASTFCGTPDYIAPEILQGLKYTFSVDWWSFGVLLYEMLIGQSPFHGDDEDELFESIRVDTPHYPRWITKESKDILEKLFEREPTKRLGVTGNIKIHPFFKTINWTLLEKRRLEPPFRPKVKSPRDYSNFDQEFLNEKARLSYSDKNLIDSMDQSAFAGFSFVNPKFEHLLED
# T3 sequence (Q9UQM7 whole entry): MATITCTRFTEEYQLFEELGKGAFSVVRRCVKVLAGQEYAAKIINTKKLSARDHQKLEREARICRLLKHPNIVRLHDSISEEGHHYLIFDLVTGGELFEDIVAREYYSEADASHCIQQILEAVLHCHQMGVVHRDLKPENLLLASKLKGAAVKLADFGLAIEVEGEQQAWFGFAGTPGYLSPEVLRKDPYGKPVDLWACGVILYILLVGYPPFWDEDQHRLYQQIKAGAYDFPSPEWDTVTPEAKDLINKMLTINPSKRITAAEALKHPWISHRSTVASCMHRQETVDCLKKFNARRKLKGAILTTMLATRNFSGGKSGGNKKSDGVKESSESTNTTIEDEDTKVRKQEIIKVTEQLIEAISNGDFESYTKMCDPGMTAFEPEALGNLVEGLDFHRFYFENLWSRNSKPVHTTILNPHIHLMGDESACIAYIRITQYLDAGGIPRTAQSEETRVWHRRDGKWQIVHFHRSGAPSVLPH
# T2 sequence (Q08345 19-913): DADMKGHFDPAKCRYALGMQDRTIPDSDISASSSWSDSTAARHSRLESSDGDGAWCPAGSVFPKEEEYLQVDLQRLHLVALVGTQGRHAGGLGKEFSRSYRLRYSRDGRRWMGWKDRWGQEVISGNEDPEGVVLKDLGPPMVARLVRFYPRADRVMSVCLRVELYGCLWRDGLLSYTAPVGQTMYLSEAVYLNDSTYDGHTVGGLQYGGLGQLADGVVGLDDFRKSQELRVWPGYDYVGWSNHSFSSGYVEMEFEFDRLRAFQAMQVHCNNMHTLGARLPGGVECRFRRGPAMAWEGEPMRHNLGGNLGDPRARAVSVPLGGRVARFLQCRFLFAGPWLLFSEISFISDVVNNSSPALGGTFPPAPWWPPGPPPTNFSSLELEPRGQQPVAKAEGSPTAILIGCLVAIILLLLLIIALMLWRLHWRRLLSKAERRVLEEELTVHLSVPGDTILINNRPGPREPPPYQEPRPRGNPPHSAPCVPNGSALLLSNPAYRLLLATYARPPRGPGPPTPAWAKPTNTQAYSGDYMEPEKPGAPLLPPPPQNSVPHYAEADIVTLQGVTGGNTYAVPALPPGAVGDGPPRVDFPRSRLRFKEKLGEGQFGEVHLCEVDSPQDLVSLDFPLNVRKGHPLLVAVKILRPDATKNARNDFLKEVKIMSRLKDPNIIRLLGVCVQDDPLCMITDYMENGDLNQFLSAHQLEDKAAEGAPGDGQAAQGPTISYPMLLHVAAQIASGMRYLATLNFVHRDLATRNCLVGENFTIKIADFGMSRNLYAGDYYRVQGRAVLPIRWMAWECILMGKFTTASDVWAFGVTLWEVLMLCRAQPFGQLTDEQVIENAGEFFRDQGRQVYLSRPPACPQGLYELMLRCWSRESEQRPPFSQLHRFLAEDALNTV
# T4 sequence (P62344 whole entry): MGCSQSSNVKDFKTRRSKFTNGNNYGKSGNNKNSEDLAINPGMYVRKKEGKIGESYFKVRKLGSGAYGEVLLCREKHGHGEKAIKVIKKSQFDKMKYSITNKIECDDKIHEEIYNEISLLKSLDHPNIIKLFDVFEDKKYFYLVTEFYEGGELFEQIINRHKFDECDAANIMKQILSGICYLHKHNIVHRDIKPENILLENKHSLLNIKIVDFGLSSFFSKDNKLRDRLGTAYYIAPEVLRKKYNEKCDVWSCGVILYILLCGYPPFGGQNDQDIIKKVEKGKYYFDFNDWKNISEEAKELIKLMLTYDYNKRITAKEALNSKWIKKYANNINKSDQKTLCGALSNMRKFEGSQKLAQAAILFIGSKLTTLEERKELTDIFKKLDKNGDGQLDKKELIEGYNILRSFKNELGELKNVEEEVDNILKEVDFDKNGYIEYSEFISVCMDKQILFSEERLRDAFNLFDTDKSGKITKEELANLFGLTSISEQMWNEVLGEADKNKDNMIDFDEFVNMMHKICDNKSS
Compound,KINOMEscan: PRKCD (panel of 442 kinases [1]),KINOMEscan: DDR1 (panel of 442 kinases [2]),KINOMEscan: CAMK2A (panel of 442 kinases [3]),KINOMEscan: PFCDPK1(P.falciparum) (panel of 442 kinases [4])
"COc1cc(C(=O)N2CCC(N3CCN(C)CC3)CC2)ccc1Nc1ncc2c(n1)N(C1CCCC1)c1ccccc1C(=O)N2C [Compound 25, 11-cyclopentyl-2-((2-methoxy-4-(4-(4-methylpiperazin-1-yl)piperidine-1-carbonyl)phenyl)amino)-5-methyl-5H-benzo[e]pyrimido[5,4-b][1,4]diazepin-6(11H)-one]",100,98,81,91
COc1cc(C(=O)N2CCC(N3CCN(C)CC3)CC2)ccc1Nc1ncc2c(n1)N1CCc3cccc(c31)C(=O)N2C [Compound 24],67,67,44,
COc1cc(C(=O)N2CCC(N3CCN(C)CC3)CC2)ccc1Nc1ncc2c(n1)N(C)c1ccccc1C(=O)N2C [15 (LRRK2-IN-1)],75,100,21,100
CCOc1cc(C(=O)N2CCC(N3CCN(C)CC3)CC2)ccc1Nc1ncc2c(n1)N(C1CCCC1)c1ccccc1C(=O)N2C [Compound 26],100,100,100,100

# — publication PMC3914206
